{"source": "paper PMC7082753", "about": "“Hazards of Using Masking Protocols When Performing Ligand Binding Assays: Lessons From the Sigma-1 and Sigma-2 Receptors” (Frontiers in Pharmacology, 2020)", "key": {"sigma-1 receptor [1]": {"biological_target": "sigma-1 receptor", "set-up": "method as in Largent et al., 1987", "conditions": "ref Largent et al., 1987, cited from earlier work"}, "sigma-2 receptor [2]": {"biological_target": "sigma-2 receptor", "conditions": "PC12 cells, ref Hellewell and Bowen, 1990, cited from earlier work"}, "sigma-1 receptor [3]": {"tested_on": "sigma-1 receptor", "assay": "Saturation binding of [³H] (+) pentazocine to MCF7 cell membranes", "set-up": "species or system human", "method": "MDA-MB-468 cells were maintained in DMEM, high glucose (41965-062) supplemented with 10% foetal calf serum. MCF7 cells were maintained in MEM (M2279) supplemented with 2 mM L-glutamine and 10% foetal calf serum. Cells were cultured at 37°C in a humidified incubator with 5% CO2. […] The supernatant was discarded and the pellet suspended in SBB.\nAssays (total volume 100 µl) were performed using 0–300 nM [^3H] […] Non-specific binding was determined using 1 mM reduced haloperidol ([Schetz et al., 2007]). […] Assays were terminated by addition of ice-cold tris-buffered saline (TBS: 154 mM NaCl, 10 mM Tris, pH 7.4) and filtration through glass fibre filters (GF/B, Sigma-Aldrich, Poole, UK) using a cell harvester. Tubes and filter discs were washed (2 x 3 ml) with ice-cold TBS, and the filter discs dried under vacuum. Scintillation counting was carried out in ProSafe FC+ cocktail (Meridian Biotechnologies Ltd, Tadworth, UK) after overnight incubation."}, "sigma-1 receptor [4]": {"biological_target": "T1, sigma-1 receptor (Homo sapiens, UniProt Q99720)", "T1 construct": "sigma-1 receptors in membranes prepared from MDA-MB-468 cells; endogenous in cells; host or cells: MDA-MB-468 (ATCC HTB-132) cell membranes", "T1 sequence (Q99720 whole entry)": "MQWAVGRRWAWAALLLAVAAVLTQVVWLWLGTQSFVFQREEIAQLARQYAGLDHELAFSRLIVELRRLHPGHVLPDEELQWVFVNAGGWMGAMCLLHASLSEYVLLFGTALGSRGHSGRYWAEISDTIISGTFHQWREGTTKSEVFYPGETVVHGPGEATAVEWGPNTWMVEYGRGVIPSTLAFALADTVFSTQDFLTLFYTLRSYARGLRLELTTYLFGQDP", "type": "binding", "conditions": "MDA-MB-468; two-site analysis", "protocol": "(§1) Competition binding assays (total volume 100 μl) were performed using a final assay concentration of 50 nM, 100 nM, or 1 µM [^3H] […] Alternatively, 10–30 nM [³H] […] The assay was then allowed to equilibrate at room temperature for 4 h. […] Tubes and filter discs were washed with ice-cold TBS (2 x 3 ml), and the filter discs dried under vacuum."}, "sigma-1 receptor [5]": {"tested_on": "sigma-1 receptor", "conditions": "not affected by GTP or suramin; ref Brimson et al., 2011; cited from earlier work"}, "sigma sites": {"tested_on": "sigma sites", "conditions": "spinal cord; competition experiments; ref Kovacs and Larson, 1995; cited from earlier work"}, "sigma-2 receptor [6]": {"biological_target": "T2, sigma-2 receptor (Homo sapiens, UniProt Q5BJF2)", "T2 sequence (Q5BJF2 whole entry)": "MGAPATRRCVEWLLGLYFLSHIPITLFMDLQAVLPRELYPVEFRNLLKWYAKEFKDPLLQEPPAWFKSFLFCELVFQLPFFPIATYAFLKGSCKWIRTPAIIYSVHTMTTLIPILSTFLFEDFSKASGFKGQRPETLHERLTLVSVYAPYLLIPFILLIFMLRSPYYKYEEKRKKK", "assay": "Two-site competition of (+) pentazocine with [³H] DTG in MDA-MB-468 membranes, low-affinity site", "type": "binding", "set-up": "endogenous in cells", "conditions": "two-site analysis", "protocol": "as §1"}, "sigma-2 receptor [7]": {"biological_target": "T2, sigma-2 receptor", "assay": "[³H] DTG saturation binding to MCF7 membranes in absence or presence of (+) pentazocine", "set-up": "from sigma-2 receptors in membranes prepared from MCF7 cells; endogenous in cells; host or cells: MCF7 (ATCC HTB-22) cell membranes", "protocol": "(§2) Assays (total volume 100 μl) were performed at room temperature for 4 h with 1–300 nM [^3H] […] Assays were terminated by addition of ice-cold TBS and filtration through glass fibre filters (GF/C, Sigma-Aldrich, Poole, UK) using a cell harvester. Tubes and filter discs were washed with ice-cold TBS (2 x 3 ml) and the filter discs dried under vacuum. Scintillation counting was carried out in ProSafe FC+ cocktail after overnight incubation."}, "sigma receptors": {"tested_on": "sigma receptors", "assay": "Saturation binding of pan-sigma ligand [³H] DTG to MDA-MB-468 cell membranes", "set-up": "species or system human", "conditions": "MDA-MB-468 membranes; n = 3", "protocol": "as §2"}, "[8]": {"tested_on": "residual binding sites for [³H] DTG in TMEM97 knock-out HeLa cells", "conditions": "cited from earlier work"}, "sigma-2 receptor [9]": {"biological_target": "sigma-2 receptor", "set-up": "method as in Hou et al., 2006; Zeng et al., 2019", "conditions": "ref Hou et al., 2006; Zeng et al., 2019; cited from earlier work"}, "sigma-1 receptor [10]": {"biological_target": "sigma-1 receptor", "set-up": "method as in Hou et al., 2006; Zeng et al., 2019", "conditions": "ref Hou et al., 2006; Zeng et al., 2019; cited from earlier work"}, "sigma-1 receptor [11]": {"biological_target": "sigma-1 receptor", "assay": "Literature dextrallorphan competition against [³H] PPP (Largent et al.)", "type": "binding", "conditions": "data of ref Largent et al., 1987"}, "sigma-2 receptor [12]": {"tested_on": "sigma-2 receptor", "assay": "Literature [³H] DTG and [³H] PPP binding in PC12 cells and affinity estimated from it", "set-up": "species or system rat", "conditions": "for K30: 30 % displacement; for Ki: data of ref Hellewell and Bowen, 1990", "from_the_text": "Calculations for saturation binding are based on non-linear analysis of idealised data."}, "sigma-1 receptor [13]": {"biological_target": "sigma-1 receptor", "conditions": "ref Hellewell and Bowen, 1990; read-out: Ki (sigma-1 affinity); cited from earlier work"}}, "note": "Like-named read-outs stand apart in the source and are kept apart here.", "data": [{"smiles": "CCCN1CCCC(c2cccc(O)c2)C1", "note": "(single isomer, unassigned; (+)) [PPP, (+)-3-(3-hydroxyphenyl)-N-(1-propyl)piperidine]", "values": [{"measurement": "Kd", "setting": "sigma-1 receptor [1]; radioligand [³H] PPP", "result": 30, "unit": "nM"}, {"measurement": "Kd", "setting": "sigma-2 receptor [2]; PPP", "result": 86.3, "unit": "nM"}]}, {"smiles": "CC(C)=CCN1CC[C@]2(C)c3cc(O)ccc3C[C@H]1[C@H]2C", "note": "[(+) pentazocine, (1S,9S,13S)-1,13-dimethyl-10-(3-methylbut-2-en-1-yl)-10-azatricyclotrideca-2,4,6-trien-4-ol]", "values": [{"measurement": "specific binding", "setting": "sigma-1 receptor [3]", "result": "no specific binding"}, {"measurement": "% of sites with high affinity", "setting": "sigma-1 receptor [4]", "result": 36, "unit": "%"}, {"measurement": "Hill slope", "setting": "sigma-1 receptor [5]", "result": "unity"}, {"measurement": "[³H] DTG displaced with high affinity", "setting": "sigma sites", "result": 30, "unit": "%"}, {"measurement": "displacement of DTG and PPP binding", "setting": "sigma-2 receptor [2]", "result": "low-affinity"}, {"measurement": "% of sites with low affinity", "setting": "sigma-2 receptor [6]", "result": 64, "unit": "%"}, {"measurement": "effect on Bmax of [³H] DTG", "setting": "sigma-2 receptor [7]; 100 nM (+) pentazocine", "result": "did not affect"}, {"measurement": "effect on calculated Bmax of [³H] DTG", "setting": "sigma-2 receptor [7]; 1 µM (+) pentazocine", "result": "did not affect"}]}, {"smiles": "Cc1ccccc1NC(=N)Nc1ccccc1C", "note": "[DTG, 1,3-di-O-tolylguanidine]", "values": [{"measurement": "pKd", "setting": "sigma receptors", "result": "7.88 ± 0.01"}, {"measurement": "Kd", "setting": "[8]; presence of 1 μM (+) pentazocine, ref Riad et al., 2018, Zeng et al., 2019, read-out: apparent Kd", "result": "300 to 400", "unit": "nM"}]}, {"smiles": "COc1cc2c(cc1OC)CN(CCCCNC(=O)c1cc(I)cc(OC)c1OC)CC2", "note": "[RHM-4]", "values": [{"measurement": "detection of residual binding when used as radioligand", "setting": "[8]; ref Zeng et al., 2019", "result": "unable to detect this residual binding"}, {"measurement": "Ki", "setting": "sigma-2 receptor [9]", "result": 8.2, "unit": "nM"}, {"measurement": "Ki", "setting": "sigma-1 receptor [10]", "result": 12900, "unit": "nM"}]}, {"smiles": "C=CCN1CC[C@@]23CCCC[C@@H]2[C@@H]1Cc1ccc(O)cc13", "note": "[dextrallorphan]", "values": [{"measurement": "Ki", "setting": "sigma-1 receptor [11]; Cheng-Prusoff correction of IC50 163 nM, read-out: Ki", "result": "153 to 158", "unit": "nM"}, {"measurement": "Ki", "setting": "sigma-1 receptor [11]; lowest calculated affinity, from Ki 153-158 nM, read-out: sigma-1 affinity used for modelling", "result": 155, "unit": "nM"}, {"measurement": "K30", "setting": "sigma-2 receptor [12]; calculated using DTG (5 nM, Kd […])", "result": 18.76, "unit": "µM"}, {"measurement": "K30", "setting": "sigma-2 receptor [12]; calculated using PPP (3 nM, Kd 86.3 nM)", "result": 6.55, "unit": "µM"}, {"measurement": "Ki", "setting": "sigma-2 receptor [12]; estimated from DTG data in PC12 cells", "result": 44700, "unit": "nM"}, {"measurement": "Ki", "setting": "sigma-2 receptor [12]; estimated from PPP data in PC12 cells", "result": 15000, "unit": "nM"}, {"measurement": "Ki", "setting": "sigma-1 receptor [13]", "result": 16.1, "unit": "nM"}, {"measurement": "IC50", "setting": "sigma-1 receptor [1]; against 1-2 nM [³H] PPP", "result": 163, "unit": "nM"}, {"measurement": "displacement of [³H] DTG or [³H] PPP", "setting": "sigma-2 receptor [2]; 5 μM dextrallorphan", "result": "less than 30%"}]}]}
